In US4988697A, “Fungicidal compositions and method” (Merck & Co., Inc., priority 1989, dated 1991):
Values after ≈ are worked out from the molar mass of the structure shown.

Experiments:
Type in all cases: cell-based
Candida albicans MY 1055 [1] = assay: Minimum Inhibitory Concentration, broth dilution; conditions: MY1055, YNB/G, 37° C., 17 hr
Protocol: 11-(3-hydroxymethyl-4-oxo-2-oxetanyl)-7-methyl-2,4-undecadienoic acid (β-lactone compound), was solubilized in 100 percent dimethylsulfoxide (DMSO). Twofold dilutions were made with DMSO to obtain final drug concentrations in the broth dilution assay tubes ranging from 0.625 to 100 μg/ml.
The Candida albicans, MY 1055, yeast culture maintained in yeast nitrogen base/glucose (1/2 percent), YNB/G, was transferred to fresh medium and incubated 7 hours at 37° with shaking at 250 rpm. After incubation, each culture was diluted to A600 =0.0004 U/ml which was previously determined to be equal to 3000 cfu/ml (colony forming units per milliliter).
1 milliliter of YNB/G inoculated with yeast culture was added to sterile test tubes. The tubes were incubated at 250 rpm, 37° C. for 17 hr. The minimum inhibitory concentrations (MIC) was recorded as the lowest concentration of drug […].

Candida albicans MY 1055 [2] = assay: Minimum Fungicidal Concentration, plating of MIC tubes; conditions: MY1055, ≥95% reduction of viable cells, 37° C., 17 hours
Protocol: In the manner above described for the determination of minimum inhibitory concentration, broth dilution assay tubes were prepared ranging from 0.625 to 100 μg/ml and 1 milliliter of YNB/G inoculated with Candida albicans MY 1055 sterile test tubes. The tubes were incubated at 250 rpm at 37° C. for 17 hours. The minimum fungicidal concentration (MFC) was determined by serially diluting samples of MIC tubes in 0.9% saline. Aliquots were plated on Sabouraud dextrose agar. The plates were incubated at 37° for 48 hr. and the colonies counted. From the counts obtained, the number of cfu/ml in the undiluted drug-culture tube was calculated. The MFC is defined as the minimum amount of drug required to reduce the number of viable cells initially present in the drug-culture tubes greater than or equal to 95%. The MFC was 10 μg/ml.

Candida albicans = assay: Synergistic and fungicidal effect on exponential phase cultures (CFU/ml over time); conditions: ketoconazole 1 μg/ml, alone or combined
Protocol: Synergistic and fungicidal effects were determined by treating exponential phase Candida albicans cultures with β-Lactone at MIC and MFC levels and ketoconazole at 0.1 μg/ml or a 1 μg/ml alone or in combination. Exponential phase cultures were prepared by diluting an overnight culture 1:50 or 1:1000 in YNB/G. After incubating the diluted cells 7 or 17 hrs. at 37° C., the exponential phase cells were diluted in YNB/G to A600 =0.0004 u/ml to obtain 3000 cfu/ml.
10 microliters (μl) of β-lactone compound or ketoconazole prepared in DMSO was added to 1 ml of diluted exponential phase cells. The tubes were incubated at 37° C. at 250 rpm for 27 hours. Periodically, aliquots were diluted in 0.9% saline and plated on Sabouraud dextrose agar plates to determine the number of cfu/ml.

Candida albicans MY 1055 [3] = assay: Effect of Azole Antifungals on the MIC'S of the β-Lactone Compound
From the text: The β-lactone compound and the following conazole compounds: cis-1-acetyl-4-[4-[[2-(2,4-dichlorophenyl)-2-1H-imidazole-1-ylmethyl)-1,3- dioxolan-4-yl]-methoxyl]phenyl]piperazine (ketoconazole), α-(2,4-difluorophenyl)-α-(1H-1,4-triazol-1-ylmethyl)1H-1,2-4-triazole-1-ethanol (fluconazole and cis-4-[4-[4-[4-[[2-(2,4-dichlorophenyl)-2-(1H-1,2,4-triazole-1-ylmethyl)-1,3-dioxolan-4-yl]-methoxy] phenyl]-1-piperazinyl]phenyl-2,4-dihydro-2-(1-methylpropyl)-3H-1,2,4-triazol-3-one (itraconazole), were dissolved in DMSO and serially diluted in the manner previously described.
Assay tubes were prepared in a manner similar to that previously described and in operations carried out in a manner similar to that previously described, the effect of various conazole compounds on the MIC of the β-lactone compound were determined.

A. niger = assay: MIC against fungal panel, A. niger
Protocol: (§1) First the MIC for the β-lactone compound and the MIC for the ketoconazole were determined against an array of organisms. Thereafter, the effects on the MIC of adding 0.031, 0.125, 0.5 and 2 μg/ml of ketoconazole were determined.

C. miyabeamis = assay: MIC against fungal panel, C. miyabeamis
Protocol: In a manner similar to that above described for effect against Candida albicans the synergistic effect of the combination of the β-lactone compound and ketoconazole against a fungal panel was determined by plating on potato dextrose agar.
as §1

F. oxysporium = assay: MIC against fungal panel, F. oxysporium
Protocol: as §1

U. zeae = assay: MIC against fungal panel, U. zeae
Protocol: as §1

C. neoformans = assay: MIC against fungal panel, C. neoformans
Protocol: as §1

C. albicans (Y1055) = assay: MIC against fungal panel, C. albicans (Y1055)
Protocol: as §1

C. albicans (Y1750) = assay: MIC against fungal panel, C. albicans (Y1750)
Protocol: as §1

With CC(=CC(=O)O)C=C(C)CC(C)CCCCC1OC(=O)C1CO (stereo not drawn) [β-Lactone Compound] the MIC (Candida albicans MY 1055 [1]) was 2.5 µg/mL (≈ 7.71 µM), the MFC (Candida albicans MY 1055 [2]) was 10 µg/mL (≈ 30.8 µM) and the “Fungal Growth” value (Candida albicans; Table 1, 2 hours, β-lactone 2.5 μg/ml) was 3.85 × 10^3 CFU/ML. For the same molecule, the “Fungal Growth” value (Candida albicans; Table 1, 4.5 hours, β-lactone 2.5 μg/ml) was 8.80 × 10^3 CFU/ML, the “Fungal Growth” value (Candida albicans; Table 1, 7 hours, β-lactone 2.5 μg/ml) was 1.12 × 10^4 CFU/ML and the “Fungal Growth” value (Candida albicans; Table 1, 11 hours, β-lactone 2.5 μg/ml) was 1.28 × 10^4 CFU/ML. The “Fungal Growth” value (Candida albicans; Table 1, 17 hours, β-lactone 2.5 μg/ml) was 9.35 × 10^3 CFU/ML, the “Fungal Growth” value (Candida albicans; Table 1, 22 hours, β-lactone 2.5 μg/ml) was 1.23 × 10^4 CFU/ML and the “Fungal Growth” value (Candida albicans; Table 1, 27 hours, β-lactone 2.5 μg/ml) was 1.80 × 10^4 CFU/ML. For the same molecule, the “Fungal Growth” value (Candida albicans; Table 2, 2 hours, β-lactone 10 μg/ml) was 6.50 × 10^3 CFU/ML, the “Fungal Growth” value (Candida albicans; Table 2, 4.5 hours, β-lactone 10 μg/ml) was 7.50 × 10^3 CFU/ML and the “Fungal Growth” value (Candida albicans; Table 2, 7 hours, β-lactone 10 μg/ml) was 3.35 × 10^3 CFU/ML. For the same molecule, the “Fungal Growth” value (Candida albicans; Table 2, 11 hours, β-lactone 10 μg/ml) was 8.70 × 10^2 CFU/ML, the “Fungal Growth” value (Candida albicans; Table 2, 17 hours, β-lactone 10 μg/ml) was 5.00 × 10^1 CFU/ML and the “Fungal Growth” value (Candida albicans; Table 2, 22 hours, β-lactone 10 μg/ml) was 6.50 × 10^1 CFU/ML. For the same molecule, the “Fungal Growth” value (Candida albicans; Table 2, 27 hours, β-lactone 10 μg/ml) was 7.50 × 10^1 CFU/ML, the “MIC of β-lactone compound” value (Candida albicans MY 1055 [3]; fluconazole 0 μg/ml) was 2.5 µg/mL and the “MIC of β-lactone compound” value (Candida albicans MY 1055 [3]; itraconazole 0 μg/ml) was 2.5 µg/mL. The “MIC of β-lactone compound” value (Candida albicans MY 1055 [3]; ketoconazole 0 μg/ml) was 2.5 µg/mL, the “MIC of β-lactone compound” value (Candida albicans MY 1055 [3]; with fluconazole 0.3125 μg/ml) was 1.25 µg/mL and the “MIC of β-lactone compound” value (Candida albicans MY 1055 [3]; with fluconazole 1.25 μg/ml) was 0.625 µg/mL. The “MIC of β-lactone compound” value (Candida albicans MY 1055 [3]; with fluconazole 5.0 μg/ml) was 0.625 µg/mL, the “MIC of β-lactone compound” value (Candida albicans MY 1055 [3]; with itraconazole 0.3125 μg/ml) was 2.5 µg/mL and the “MIC of β-lactone compound” value (Candida albicans MY 1055 [3]; with itraconazole 1.25 μg/ml) was 1.25 µg/mL. For the same molecule, the “MIC of β-lactone compound” value (Candida albicans MY 1055 [3]; with itraconazole 5.0 μg/ml) was 1.25 µg/mL, the “MIC of β-lactone compound” value (Candida albicans MY 1055 [3]; with ketoconazole 0.3125 μg/ml) was 0.625 µg/mL and the “MIC of β-lactone compound” value (Candida albicans MY 1055 [3]; with ketoconazole 1.25 μg/ml) was 0.625 µg/mL. The “MIC of β-lactone compound” value (Candida albicans MY 1055 [3]; with ketoconazole 5.0 μg/ml) was 0.625 µg/mL, the “MIC, β-Lactone Compound in Presence of Ketoconazole” value (from here on “MIC, β-Lactone Compound in Presence”) (A. niger; ketoconazole 0 μg/ml) was greater than 50 µg/mL and the “MIC, β-Lactone Compound in Presence” value (A. niger; ketoconazole 0.031 μg/ml) was greater than 50 µg/mL. For the same molecule, the “MIC, β-Lactone Compound in Presence” value (A. niger; ketoconazole 0.123 μg/ml) was greater than 50 µg/mL, the “MIC, β-Lactone Compound in Presence” value (A. niger; ketoconazole 0.5 μg/ml) was greater than 50 µg/mL and the “MIC, β-Lactone Compound in Presence” value (A. niger; ketoconazole 2 μg/ml) was greater than 50 µg/mL. The “MIC, β-Lactone Compound in Presence” value (C. miyabeamis; ketoconazole 0 μg/ml) was 0.78 µg/mL, the “MIC, β-Lactone Compound in Presence” value (C. miyabeamis; ketoconazole 0.031 μg/ml) was 0.39 µg/mL and the “MIC, β-Lactone Compound in Presence” value (C. miyabeamis; ketoconazole 0.123 μg/ml) was 0.78 µg/mL. The “MIC, β-Lactone Compound in Presence” value (C. miyabeamis; ketoconazole 2 μg/ml) was “N.G”, the “MIC, β-Lactone Compound in Presence” value (F. oxysporium; ketoconazole 0 μg/ml) was greater than 50 µg/mL and the “MIC, β-Lactone Compound in Presence” value (F. oxysporium; ketoconazole 0.031 μg/ml) was greater than 50 µg/mL. For the same molecule, the “MIC, β-Lactone Compound in Presence” value (F. oxysporium; ketoconazole 0.123 μg/ml) was greater than 50 µg/mL, the “MIC, β-Lactone Compound in Presence” value (F. oxysporium; ketoconazole 0.5 μg/ml) was greater than 50 µg/mL and the “MIC, β-Lactone Compound in Presence” value (F. oxysporium; ketoconazole 2 μg/ml) was greater than 50 µg/mL. The “MIC, β-Lactone Compound in Presence” value (U. zeae; ketoconazole 0 μg/ml) was 3.125 µg/mL, the “MIC, β-Lactone Compound in Presence” value (U. zeae; ketoconazole 0.031 μg/ml) was 3.125 µg/mL and the “MIC, β-Lactone Compound in Presence” value (U. zeae; ketoconazole 0.123 μg/ml) was 0.78 µg/mL. For the same molecule, the “MIC, β-Lactone Compound in Presence” value (U. zeae; ketoconazole 0.5 μg/ml) was 0.19 µg/mL, the “MIC, β-Lactone Compound in Presence” value (U. zeae; ketoconazole 2 μg/ml) was 0.19 µg/mL and the “MIC, β-Lactone Compound in Presence” value (C. neoformans; ketoconazole 0 μg/ml) was 12.5 µg/mL. For the same molecule, the “MIC, β-Lactone Compound in Presence” value (C. neoformans; ketoconazole 0.031 μg/ml) was 12.5 µg/mL, the “MIC, β-Lactone Compound in Presence” value (C. neoformans; ketoconazole 0.123 μg/ml) was 3.125 µg/mL and the “MIC, β-Lactone Compound in Presence” value (C. neoformans; ketoconazole 0.5 μg/ml) was 0.19 µg/mL. For the same molecule, the “MIC, β-Lactone Compound in Presence” value (C. neoformans; ketoconazole 2 μg/ml) was 0.19 µg/mL, the “MIC, β-Lactone Compound in Presence” value (C. albicans (Y1055); ketoconazole 0 μg/ml) was 3.125 µg/mL and the “MIC, β-Lactone Compound in Presence” value (C. albicans (Y1055); ketoconazole 0.031 μg/ml) was 0.78 µg/mL. For the same molecule, the “MIC, β-Lactone Compound in Presence” value (C. albicans (Y1055); ketoconazole 0.123 μg/ml) was 0.78 µg/mL, the “MIC, β-Lactone Compound in Presence” value (C. albicans (Y1055); ketoconazole 0.5 μg/ml) was 0.19 µg/mL and the “MIC, β-Lactone Compound in Presence” value (C. albicans (Y1055); ketoconazole 2 μg/ml) was 0.19 µg/mL. For the same molecule, the “MIC, β-Lactone Compound in Presence” value (C. albicans (Y1750); ketoconazole 0 μg/ml) was 3.125 µg/mL, the “MIC, β-Lactone Compound in Presence” value (C. albicans (Y1750); ketoconazole 0.031 μg/ml) was 0.78 µg/mL and the “MIC, β-Lactone Compound in Presence” value (C. albicans (Y1750); ketoconazole 0.123 μg/ml) was 0.195 µg/mL. The “MIC, β-Lactone Compound in Presence” value (C. albicans (Y1750); ketoconazole 0.5 μg/ml) was 0.19 µg/mL and the “MIC, β-Lactone Compound in Presence” value (C. albicans (Y1750); ketoconazole 2 μg/ml) was 0.19 µg/mL.
